Assay results: patent US8952024B2, “Herbicidal pyrimidone derivatives” (E I du Pont de Nemours and Company, priority 2009, dated 2015)
Read-outs that look alike come from different tables or passages of the source.

Experiments:
Format in all cases: in vivo
[1] = test system: barnyardgrass (Echinochloa crus-galli); assay: Test A pre-/postemergence plant response; details: Echinochloa crus-galli, 240 h; for pest or weed control at 125 g/ha: 125 g ai/ha; for pest or weed control at 500 g/ha: 500 g ai/ha
How it was run: (§1)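 Approximately ten days after concurrent pre- and postemergence spraying in a greenhouse, plants were compared with untreated controls and rated visually for injury, 0 = no effect to 100 = complete control. Preemergence spray was directed onto loam/sand soil; postemergence targeted 1–2 leaf seedlings.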

[2] = test system: corn (Zea mays); assay: Test A pre-/postemergence plant response; details: Zea mays, 240 h; for Corn plant response rating (crop injury, 0 = no effect, 100 = complete kill) at 500 g/ha: 500 g ai/ha
How it was run: as §1

[3] = test system: giant foxtail (Setaria faberii); assay: Test A pre-/postemergence plant response; details: Setaria faberi, 240 h; for pest or weed control at 125 g/ha: 125 g ai/ha; for pest or weed control at 500 g/ha: 500 g ai/ha
How it was run: as §1

[4] = test system: large crabgrass (Digitaria sanguinalis); assay: Test A pre-/postemergence plant response; details: Digitaria sanguinalis, 240 h; for pest or weed control at 125 g/ha: 125 g ai/ha; for pest or weed control at 500 g/ha: 500 g ai/ha
How it was run: as §1

[5] = test system: morningglory (Ipomoea spp.); assay: Test A pre-/postemergence plant response; details: Ipomoea, 240 h; for pest or weed control at 125 g/ha: 125 g ai/ha; for pest or weed control at 500 g/ha: 500 g ai/ha
How it was run: as §1

[6] = test system: pigweed (Amaranthus retroflexus); assay: Test A pre-/postemergence plant response; details: Amaranthus retroflexus, 240 h; for pest or weed control at 125 g/ha: 125 g ai/ha; for pest or weed control at 500 g/ha: 500 g ai/ha
How it was run: as §1

[7] = test system: velvetleaf (Abutilon theophrasti); assay: Test A pre-/postemergence plant response; details: Abutilon theophrasti, 240 h; for pest or weed control at 125 g/ha: 125 g ai/ha; for pest or weed control at 500 g/ha: 500 g ai/ha
How it was run: as §1

[8] = test system: wheat (Triticum aestivum); assay: Test A pre-/postemergence plant response; details: Triticum aestivum, 240 h; for plant injury at 125 g/ha: 125 g ai/ha; for plant injury at 500 g/ha: 500 g ai/ha
How it was run: as §1

[9] = test system: bermudagrass (Cynodon dactylon); assay: Test B pre-/postemergence plant response; details: for pest or weed control at 31 g/ha: 31 g ai/ha, scale 0 to 100 (0 no effect, 100 complete control)
Text: (§2) Seeds of plant species selected from blackgrass (Alopecurus myosuroides), downy bromegrass (Bromus tectorum), green foxtail (Setaria viridis), Italian ryegrass (Lolium multiflorum), wheat (Triticum aestivum), wild oat (Avena fatua), deadnettle (henbit deadnettle, Lamium amplexicaule), galium (catchweed bedstraw, Galium aparine), bermudagrass (Cynodon dactylon), Surinam grass (Brachiaria decumbens), cocklebur (Xanthium strumarium), corn (Zea mays), large crabgrass (Digitaria sanguinalis), woolly cupgrass (Eriochloa villosa), giant foxtail (Setaria faberii), goosegrass (Eleusine indica), johnsongrass (Sorghum halepense), kochia (Kochia scoparia), lambsquarters (Chenopodium album), morningglory (Ipomoea coccinea), nightshade (eastern black nightshade, Solanum ptycanthum), yellow nutsedge (Cyperus esculentus), pigweed (Amaranthus retroflexus), ragweed (common ragweed, Ambrosia elatior), Russian thistle (Salsola kali), soybean (Glycine max), sunflower (common oilseed sunflower, Helianthus annuus) and velvetleaf (Abutilon theophrasti) were planted into a blend of loam soil and sand and treated preemergence with test compounds formulated in a non-phytotoxic solvent mixture which included a surfactant.
(§3) At the same time, plants selected from these crop and weed species and also winter barley (Hordeum vulgare), canarygrass (Phalaris minor), chickweed (Stellaria media) and windgrass (Apera spica-venti) were planted in pots containing Redi-Earth® planting medium (Scotts Company, 14111 Scottslawn Road, Marysville, Ohio 43041) comprising spaghnum peat moss, vermiculite, wetting agent and starter nutrients and treated with postemergence applications of some of the test chemicals formulated in the same manner. Plants ranged in height from 2 to 18 cm (1- to 4-leaf stage) for postemergence treatments.
(§4) Treated plants and controls were maintained in a greenhouse for 13 to 15 days, after which time all treated plants were visually evaluated and compared to controls. Plant response ratings, summarized in Table B, are based on a scale of 0 to 100 where 0 is no effect and 100 is complete control. A dash (-) response means no test result.

[10] = test system: cocklebur (Xanthium strumarium); assay: Test B pre-/postemergence plant response
Text: as §2, §3, §4

[11] = test system: wheat (Triticum aestivum); assay: Test B pre-/postemergence plant response
Text: as §2, §3, §4

[12] = Preemergence, 125 g ai/ha, 0 to 100 scale

Cc1c(F)cccc1-n1c(-c2ccccc2)ncc(C(=O)C2=C(O)CCCC2=O)c1=O [Compound 47, 3-(3-fluoro-2-methylphenyl)-5-[(2-hydroxy-6-oxo-1-cyclohexen-1-yl)carbonyl]-2-phenyl-4(3H)-pyrimidinone]
10%: pest or weed control at 125 g/ha ([1]; pre-emergence, Preemergence, 0 to 100 scale, 0 = no effect, 100 = complete control, read-out: Plant response rating, Barnyardgrass)
0: Wheat plant response rating [11, 12]
70%: Corn plant response rating (crop injury, 0 = no effect, 100 = complete kill) at 500 g/ha ([2]; post-emergence, Postemergence, 0 to 100 scale, 0 = no effect, 100 = complete control, approx. ten days) | pest or weed control at 125 g/ha ([4]; pre-emergence, Preemergence, 0 to 100 scale, 0 = no effect, 100 = complete control, read-out: Plant response rating, Crabgrass, Large) | pest or weed control at 125 g/ha ([7]; pre-emergence, Preemergence, 0 to 100 scale, 0 = no effect, 100 = complete control, read-out: Plant response rating, Velvetleaf)
60%: pest or weed control at 125 g/ha ([5]; pre-emergence, Preemergence, 0 to 100 scale, 0 = no effect, 100 = complete control, read-out: Plant response rating, Morningglory)
98%: pest or weed control at 125 g/ha ([9]; Cynodon dactylon, post-emergence, Postemergence, 125 g ai/ha, visual rating after 13 to 15 days, scale 0 (no effect) to 100 (complete control))
95%: pest or weed control at 31 g/ha ([10]; Xanthium strumarium, post-emergence, Postemergence, 31 g ai/ha, scale 0 to 100 (0 no effect, 100 complete control), read-out: Plant response rating, Cocklebur) | pest or weed control at 125 g/ha ([10]; Xanthium strumarium, post-emergence, Postemergence, 125 g ai/ha, visual rating after 13 to 15 days, scale 0 (no effect) to 100 (complete control))
50%: pest or weed control at 125 g/ha ([3]; pre-emergence, Preemergence, 0 to 100 scale, 0 = no effect, 100 = complete control, read-out: Plant response rating, Foxtail, Giant)
80%: pest or weed control at 125 g/ha ([5]; post-emergence, Postemergence, visual injury, 0 to 100 scale (0 no effect, 100 complete control), approx. ten days, read-out: Morningglory plant response rating) | pest or weed control at 125 g/ha ([6]; pre-emergence, Preemergence, 0 to 100 scale, 0 = no effect, 100 = complete control, read-out: Plant response rating, Pigweed)
100%: pest or weed control at 500 g/ha ([1]; post-emergence, Postemergence, 0 to 100 scale, 0 = no effect, 100 = complete control, approx. ten days, read-out: Plant response rating, Barnyardgrass) | pest or weed control at 500 g/ha ([3]; post-emergence, Postemergence, 0 to 100 scale, 0 = no effect, 100 = complete control, approx. ten days, read-out: Plant response rating, Foxtail, Giant) | pest or weed control at 500 g/ha ([4]; post-emergence, Postemergence, 0 to 100 scale, 0 = no effect, 100 = complete control, approx. ten days, read-out: Plant response rating, Crabgrass, Large) | pest or weed control at 500 g/ha ([4]; pre-emergence, Preemergence, visual injury, 0 to 100 scale (0 no effect, 100 complete control), approx. ten days, read-out: Plant response rating, Crabgrass, Large) | pest or weed control at 500 g/ha ([5]; post-emergence, Postemergence, 0 to 100 scale, 0 = no effect, 100 = complete control, approx. ten days, read-out: Plant response rating, Morningglory) | pest or weed control at 500 g/ha ([6]; post-emergence, Postemergence, 0 to 100 scale, 0 = no effect, 100 = complete control, approx. ten days, read-out: Plant response rating, Pigweed) | pest or weed control at 500 g/ha ([6]; pre-emergence, Preemergence, visual injury, 0 to 100 scale (0 no effect, 100 complete control), approx. ten days, read-out: Plant response rating, Pigweed) | pest or weed control at 125 g/ha ([7]; post-emergence, Postemergence, visual injury, 0 to 100 scale (0 no effect, 100 complete control), approx. ten days, read-out: Velvetleaf plant response rating) | pest or weed control at 500 g/ha ([7]; post-emergence, Postemergence, 0 to 100 scale, 0 = no effect, 100 = complete control, approx. ten days, read-out: Plant response rating, Velvetleaf) | pest or weed control at 500 g/ha ([7]; pre-emergence, Preemergence, visual injury, 0 to 100 scale (0 no effect, 100 complete control), approx. ten days, read-out: Plant response rating, Velvetleaf) | pest or weed control at 250 g/ha ([9]; Cynodon dactylon, pre-emergence, 250 g ai/ha, Preemergence, 0 to 100 scale, read-out: Plant response rating, Bermudagrass) | pest or weed control at 31 g/ha ([9]; Cynodon dactylon, pre-emergence, Preemergence, read-out: Plant response rating, Bermudagrass) | pest or weed control at 62 g/ha ([9]; Cynodon dactylon, pre-emergence, Preemergence, 62 g ai/ha, scale 0 to 100, 0 no effect, 100 complete control, read-out: Plant response rating, Bermudagrass)
100: Bermudagrass plant response rating [9, 12] | Cocklebur plant response rating ([10]; Postemergence, 250 g ai/ha, scale 0 to 100)
90%: pest or weed control at 125 g/ha ([1]; post-emergence, Postemergence, visual injury, 0 to 100 scale (0 no effect, 100 complete control), approx. ten days, read-out: Barnyardgrass plant response rating) | pest or weed control at 500 g/ha ([1]; pre-emergence, Preemergence, visual injury, 0 to 100 scale (0 no effect, 100 complete control), approx. ten days, read-out: Plant response rating, Barnyardgrass) | pest or weed control at 125 g/ha ([3]; post-emergence, Postemergence, visual injury, 0 to 100 scale (0 no effect, 100 complete control), approx. ten days, read-out: Foxtail, Giant plant response rating) | pest or weed control at 500 g/ha ([3]; pre-emergence, Preemergence, visual injury, 0 to 100 scale (0 no effect, 100 complete control), approx. ten days, read-out: Plant response rating, Foxtail, Giant) | pest or weed control at 125 g/ha ([4]; post-emergence, Postemergence, visual injury, 0 to 100 scale (0 no effect, 100 complete control), approx. ten days, read-out: Crabgrass, Large plant response rating) | pest or weed control at 500 g/ha ([5]; pre-emergence, Preemergence, visual injury, 0 to 100 scale (0 no effect, 100 complete control), approx. ten days, read-out: Plant response rating, Morningglory) | pest or weed control at 125 g/ha ([6]; post-emergence, Postemergence, visual injury, 0 to 100 scale (0 no effect, 100 complete control), approx. ten days, read-out: Pigweed plant response rating)
5%: plant injury at 125 g/ha ([11]; Triticum aestivum, post-emergence, Postemergence, 125 g ai/ha, visual rating after 13 to 15 days, scale 0 (no effect) to 100 (complete control))
85%: pest or weed control at 31 g/ha ([9]; Cynodon dactylon, post-emergence, Postemergence, read-out: Plant response rating, Bermudagrass)
0%: plant injury at 125 g/ha ([2]; post-emergence, Postemergence, 125 g ai/ha, visual injury, 0 to 100 scale (0 no effect, 100 complete control), approx. ten days, read-out: Corn plant response rating) | Corn plant response rating (crop injury, 0 = no effect, 100 = complete kill) at 125 g/ha ([2]; pre-emergence, Preemergence, 125 g ai/ha, 0 to 100 scale, 0 = no effect, 100 = complete control) | Corn plant response rating (crop injury, 0 = no effect, 100 = complete kill) at 500 g/ha ([2]; pre-emergence, Preemergence, visual injury, 0 to 100 scale (0 no effect, 100 complete control), approx. ten days) | plant injury at 125 g/ha ([8]; post-emergence, Postemergence, visual injury, 0 to 100 scale (0 no effect, 100 complete control), approx. ten days, read-out: Wheat plant response rating) | plant injury at 500 g/ha ([8]; post-emergence, Postemergence, 0 to 100 scale, 0 = no effect, 100 = complete control, approx. ten days, read-out: Plant response rating, Wheat) | plant injury at 125 g/ha ([8]; pre-emergence, Preemergence, 0 to 100 scale, 0 = no effect, 100 = complete control, read-out: Plant response rating, Wheat) | plant injury at 500 g/ha ([8]; pre-emergence, Preemergence, visual injury, 0 to 100 scale (0 no effect, 100 complete control), approx. ten days, read-out: Plant response rating, Wheat) | pest or weed control at 62 g/ha ([10]; Xanthium strumarium, pre-emergence, Preemergence, 62 g ai/ha, scale 0 to 100, 0 no effect, 100 complete control, read-out: Plant response rating, Cocklebur) | plant injury at 62 g/ha ([11]; Triticum aestivum, post-emergence, Postemergence, 62 g ai/ha, scale 0 (no effect) to 100 (complete control), 13 to 15 days, read-out: Plant response rating, Wheat) | plant injury at 250 g/ha ([11]; Triticum aestivum, pre-emergence, 250 g ai/ha, Preemergence, 0 to 100 scale, read-out: Plant response rating, Wheat) | plant injury at 31 g/ha ([11]; Triticum aestivum, pre-emergence, Preemergence, 31 g ai/ha, scale 0 to 100 (0 no effect, 100 complete control), read-out: Plant response rating, Wheat)
